Source: publication PMC10581251, “Antisense inhibition of RNA polymerase α subunit of Clostridioides difficile” (Microbiology Spectrum, 2023)
Where a name gives a salt, the structure may show the parent alone. Read-outs that look alike come from different tables or passages of the source. Where no end group is shown, it is not given here.

What was measured:
C. difficile ATCC 630 [1] = test: microbe, parasite or virus in culture
Protocol: (§1) The susceptibility of C. difficile isolates to the CPP-PNA conjugates or to the CPP alone was determined in vitro as described before with slight modifications ([43] [–] [45]). Briefly, the CPP-PNA conjugates, the CPP alone, and the antibiotics vancomycin and fidaxomicin were added in triplicate to the first row of ultra-low adhesion 96-well plates (Corning Inc., Corning, NY). A suspension of C. difficile equivalent to 0.5 McFarland solution was added to Mueller-Hilton II broth, which was then added to the ultra-low adhesion plate and then serially diluted. The plates were incubated anaerobically for 48 hours at 37°C. The minimum inhibitory concentration was defined as the lowest concentration of the CPP-PNA conjugate that could inhibit bacterial growth when observed visually.
(§2) The MIC and MBC experiments were repeated twice.

[2] = tested on: clinical isolates of C. difficile; test: MIC against clinical isolates of C. difficile (summary); assay type: cell-based, Clostridioides difficile; settings: range over isolates of Table 3
Protocol: as §1, §2

C. difficile ATCC 43255 = test: MIC/MBC broth microdilution, C. difficile ATCC 43255; assay type: cell-based, Clostridioides difficile
Protocol: as §1, §2

[3] = tested on: C. difficile ATCC BAA 1870; test: MIC/MBC broth microdilution, C. difficile ATCC BAA 1870; assay type: cell-based, Clostridioides difficile
Protocol: as §1, §2

[4] = tested on: toxin A and toxin B production by C. difficile 630; test: Toxin production inhibition (ELISA); assay type: cell-based, Clostridioides difficile; settings: sub-inhibitory concentrations 0.125×, 0.25×, 0.5× MIC, 8 hours, ELISA
Protocol: After the incubation period, the bacterial count in each treatment group was determined by serial dilution and plating. Toxin content in the supernatant of each treatment group was determined using an enzyme-linked immunosorbent assay (ELISA, tgcBIOMICS) kit, as per the manufacturer’s protocol.

[5] = tested on: Bifidobacterium longum subsp. longum HM 846; test: MIC gut microflora, Bifidobacterium longum; assay type: cell-based
Protocol: (§3) The susceptibility of gut microflora strains to the rpoA-TAT conjugate was determined using the broth microdilution assay, as described above. Briefly, bacterial suspensions of Bifidobacterium sp. and Bacteroides sp., in supplemented BHIS broth, and Lactobacilli strains, in MRS broth, were added to ultra-low adhesion 96-well plates and serially diluted. The MIC was recorded after 48 hours.

[6] = tested on: spore formation by C. difficile ATCC 630; test: Spore formation inhibition; assay type: cell-based, Clostridioides difficile; settings: 0.5× MIC, 12 hours
Protocol: After the incubation period, the total bacterial count for each treatment group was determined by serial dilution and plating on BHIS agar plates supplemented with 0.1% taurocholic acid. To determine the presence of spores, the remaining bacterial culture from each treatment group was heated at 65°C for 30 minutes to ensure all vegetative cells were killed. The bacterial culture from each treatment group was then serially diluted and plated on BHIS agar plates supplemented with 0.1% taurocholic acid. The plates were incubated overnight, and the CFU counts for each treatment group were determined the following day.

[7] = tested on: Lactobacillus gasseri ATCC 19992; test: MIC gut microflora, Lactobacillus gasseri; assay type: cell-based
Protocol: as §3

C. difficile 1071 = test: MIC/MBC broth microdilution, C. difficile 1071; assay type: cell-based, Clostridioides difficile
Protocol: as §1, §2

[8] = tested on: Lactobacillus brevis ATCC 14869; test: MIC gut microflora, Lactobacillus brevis; assay type: cell-based; settings: Levilactobacillus brevis, ATCC14869, 48 h
Protocol: as §3

[9] = tested on: Lactobacillus rhamnosus ATCC 53103; test: MIC gut microflora, Lactobacillus rhamnosus; assay type: cell-based; settings: Lacticaseibacillus rhamnosus, ATCC53103, 48 h
Protocol: as §3

C. difficile 630 [10] = test: Effect of high bacterial inoculum on activity; assay type: cell-based, Clostridioides difficile; settings: 8 hours
Protocol: The in vitro efficacy of the PNA constructs against a high inoculum size of C. difficile 630 was determined. Briefly, the PNA constructs and control antibiotics, at a concentration of 1× MIC, were added in triplicate to low adhesion microcentrifuge tubes (Corning Inc., Corning, NY). A high inoculum of C. difficile suspension equivalent to ~5 × 10^6 and ~5 × 10^7 cells was added to the tubes, which were incubated anaerobically at 37°C. The number of viable bacteria in each treatment group was determined by serial dilution and plating on BHIS agar plates at 8 hours and 24 hours post-incubation, respectively. The effect of a high inoculum on the activity of the PNA construct was repeated twice.

C. difficile ATCC 630 [11] = test: Effect of pH on MIC/MBC, C. difficile ATCC 630; assay type: cell-based, Clostridioides difficile; settings: Clostridioides difficile
Protocol: as §1, §2
(§4) The susceptibility of C. difficile (ATCC 630 and ATCC BAA 1870) to the rpoA-TAT conjugate was evaluated over a pH range of 6 to 9 using the broth microdilution method ([43], [46] [–] [48]). The desired pH for susceptibility testing was attained by the addition of either 0.1 N HCL or 1 N NaOH to the media. The experiment was repeated twice.

[12] = tested on: Bacteroides fragilis HM 714; test: MIC gut microflora, Bacteroides fragilis; assay type: cell-based; settings: Bacteroides fragilis, HM714, 48 h
Protocol: as §3

C. difficile 630 [13] = test: Killing kinetics (time-kill assay); assay type: cell-based, Clostridioides difficile; settings: 1× MIC, within 24 hours of incubation, inoculum ~5 × 10^5 CFU/mL
Protocol: The killing kinetics of the PNA construct was determined as described previously ([45] [–] [47]). Briefly, an overnight culture of C. difficile 630 was diluted 1:50 into fresh Mueller Hilton II broth (~10^5 CFU/mL) and added in triplicate to low adhesion microcentrifuge tubes containing either sterile water, the rpoA-TAT construct (1× MIC), or the positive controls vancomycin or fidaxomicin (1× MIC). The number of viable bacteria in each treatment group was determined by taking aliquots at 0, 4, 8, 12, 16, and 24 hours; these aliquots were then serially diluted and plated on BHIS agar plates. The plates were incubated anaerobically, and the number of colony-forming units for each treatment group was recorded the following day. The experiment was repeated twice.

C. difficile 1082 = test: MIC/MBC broth microdilution, C. difficile 1082; assay type: cell-based, Clostridioides difficile
Protocol: as §1, §2

C. difficile 1079 = test: MIC/MBC broth microdilution, C. difficile 1079; assay type: cell-based, Clostridioides difficile
Protocol: as §1, §2

[14] = tested on: C. difficile ATCC BAA 1870; test: Effect of pH on MIC/MBC, C. difficile ATCC BAA 1870; assay type: cell-based, Clostridioides difficile; settings: Clostridioides difficile
Protocol: as §1, §2, §4

[15] = aliquots of wells without growth plated on BHIS agar, repeated twice
[16] = broth microdilution, Mueller-Hilton II broth, anaerobic 48 hours 37°C, visual, triplicate, repeated twice
[17] = broth microdilution, anaerobic 48 hours 37°C, visual, read-out: MIC
[18] = plated on BHIS agar, read-out: MBC

## KFFKFFKFFK-O-CATGGACAAAAC-NH2 [(KFF)3K-rpoA]
C. difficile ATCC 630 [1]; [15]
  MBC: 32 µM
C. difficile ATCC 630 [1]; [16]
  MIC: 32 µM

## KKKKKKKK-O-CATGGACAAAAC-NH2 [K8-rpoA]
C. difficile ATCC 630 [1]; [15]
  MBC: 32 µM
C. difficile ATCC 630 [1]; [16]
  MIC: 32 µM

## GRKKKRRQRRRYK [HIV-TAT]
C. difficile ATCC 630 [1]; [16]
  MIC: >64 µM

## GRKKKRRQRRRYK-O-CATACAATTCTC-NH 2 [rpoA-TAT mismatch, mismatch control PNA conjugated to the TAT cell penetrating peptide]
C. difficile ATCC 630 [1]; [15]
  MBC: >32 µM
C. difficile ATCC 630 [1]; [16]
  MIC: >32 µM
[2]
  MIC against clinical isolates of C. difficile: > 32 µM
C. difficile ATCC 43255; [17]
  MIC: >32 µM
C. difficile ATCC 43255; [18]
  MBC: >32 µM
[3]; [17]
  MIC: >32 µM
[3]; [18]
  MBC: >32 µM

## CN[C@H](CC(C)C)C(=O)N[C@H]1C(=O)N[C@@H](CC(N)=O)C(=O)N[C@H]2C(=O)N[C@H]3C(=O)N[C@H](C(=O)N[C@H](C(=O)O)c4cc(O)cc(O)c4-c4cc3ccc4O)[C@H](O)c3ccc(c(Cl)c3)Oc3cc2cc(c3O[C@@H]2O[C@H](CO)[C@@H](O)[C@H](O)[C@H]2O[C@H]2C[C@](C)(N)[C@H](O)[C@H](C)O2)Oc2ccc(cc2Cl)[C@H]1O [Vancomycin, Vancomycin hydrochloride]
C. difficile ATCC 630 [1]; Clostridioides difficile, ATCC630
  MBC: 2 µM
C. difficile ATCC 630 [1]; Clostridioides difficile, ATCC630, 48 h
  MIC: 2 µM
[4]
  inhibition of toxin production (in words): did not inhibit toxin production
[5]; Bifidobacterium longum, 48 h
  MIC: 2 µM
[5]; broth microdilution, supplemented BHIS broth, 48 hours
  MIC: 2 µM
[6]
  inhibition of spore formation (in words): did not inhibit spore formation
[7]; Lactobacillus gasseri, ATCC19992, 48 h
  MIC: 1 µM
[7]; broth microdilution, MRS broth, 48 hours, read-out: MIC
  MIC: 1 µM
C. difficile 1071; Clostridioides difficile, 1071
  MBC: 2 µM
C. difficile 1071; Clostridioides difficile, 1071, 48 h
  MIC: 2 µM
[8]
  MIC: > 64 µM
[9]
  MIC: > 64 µM
C. difficile 630 [10]; inoculum 5 × 10^6, 1× MIC
  Log CFU: 5.37
C. difficile 630 [10]; inoculum 5 × 10^6, 1× MIC, vs no treatment
  Log reduction: 1
C. difficile 630 [10]; inoculum 5 × 10^7, 1× MIC
  Log CFU: 7.03
C. difficile ATCC 43255; Clostridioides difficile, ATCC43255
  MBC: 4 µM
C. difficile ATCC 43255; Clostridioides difficile, ATCC43255, 48 h
  MIC: 4 µM
C. difficile ATCC 630 [11]; ATCC630, pH 6
  MBC: 2 µM
  MIC: 2 µM
C. difficile ATCC 630 [11]; ATCC630, pH 7
  MBC: 4 µM
  MIC: 4 µM
C. difficile ATCC 630 [11]; ATCC630, pH 8
  MBC: 16 µM
  MIC: 8 µM
[12]
  MIC: 64 µM
[3]; Clostridioides difficile, BAA1870
  MBC: 4 µM
[3]; Clostridioides difficile, BAA1870, 48 h
  MIC: 4 µM
C. difficile 630 [13]
  reduction of bacterial burden: ~ 1.6 log10 CFU/mL
C. difficile 1082; Clostridioides difficile, 1082
  MBC: 2 µM
C. difficile 1082; Clostridioides difficile, 1082, 48 h
  MIC: 2 µM
C. difficile 1079; Clostridioides difficile, 1079
  MBC: 2 µM
C. difficile 1079; Clostridioides difficile, 1079, 48 h
  MIC: 2 µM
[14]; BAA1870, pH 6
  MBC: 4 µM
  MIC: 4 µM
[14]; BAA1870, pH 7
  MBC: 8 µM
  MIC: 4 µM
[14]; BAA1870, pH 8
  MBC: 16 µM
  MIC: 8 µM

## RFRRFRRFRRFRXB-O-CATGGACAAAAC-NH2 [(RFR)4XB -rpoA]
C. difficile ATCC 630 [1]; [15]
  MBC: 8 µM
C. difficile ATCC 630 [1]; [16]
  MIC: 8 µM

## RXRRXRRXRRXRXB-O-CATGGACAAAAC-NH2 [(RXR)4XB -rpoA]
C. difficile ATCC 630 [1]; [15]
  MBC: 8 µM
C. difficile ATCC 630 [1]; [16]
  MIC: 8 µM
